Reference: patent US20220306653A1, “MACROCYCLIC INHIBITORS OF MCL-1” (Janssen Pharmaceutica NV, priority 2019, published 2022)
“And” between values parts separate entries of the source, which are not always exact repeats. Equal values may be shown once. Read-outs that look alike come from different tables or passages of the source.

What was measured:
MOLP8 cells = assay: MOLP8 CellEvent Caspase-3/7 Green apoptosis activation assay (IncuCyte live-cell kinetic readout); format: cell-based; settings: each independent run listed
Experimental: MCL-1 is a regulator of apoptosis and is highly over-expressed in tumor cells that escape cell death. The assay evaluates the cellular potency of small-molecule compounds targeting regulators of the apoptosis pathway, primarily MCL-1, Bfl-1, Bcl-2, and other proteins of the Bcl-2 family. Protein-protein inhibitors disrupting the interaction of anti-apoptotic regulators with BH3-domain proteins initiate apoptosis.
Activation of the apoptotic pathway was measured using the CellEvent™ Caspase-3/7 Green ReadyProbes™ Reagent (Thermo Fisher C10423, C10723). This assay produces a green fluorescent stain in cells that enter the apoptosis pathway. CellEvent® Caspase-3/7 Green reagent is a four amino acid peptide (DEVD) conjugated to a nucleic acid-binding dye that is non-fluorescent when not bound to DNA. The CellEvent® Caspase-3/7 Green reagent is intrinsically non-fluorescent, as the DEVD peptide inhibits binding of the dye to DNA. Upon activation of caspase-3/7 in apoptotic cells, the DEVD peptide is cleaved and the free dye can bind DNA, generating a bright green fluorescence. The activation of Caspase-3 and Caspase-7 is downstream of inhibition of MCL-1 or other apoptosis inhibiting proteins in cell lines that are dependent on them.
The live-cell readout on the IncuCyte permits tracking over time of the Caspase activation. […] The IncuCyte readout also allows one to normalize for cell number, as the suspension cells are hard to distribute evenly.
Signals were measured every 2 h for a duration of 22 h. The ratio of the Caspase mask to the Confluence mask, per image, as raw data, was calculated and the kinetic trace for every well was exported to Genedata Screener for analysis.
In Genedata Screener values for 6 h, 12 h, and 22 h from the kinetic traces were extracted. The values were normalized against negative controls (untreated cells). A standard dose-response analysis was performed on the normalized data.
The following data was reported at each of the following three aforementioned time points: (a) The dose-response curve, (b) The qAC50 and qAC50 Mode, and (c) Max Activity.
Cells were maintained in culture medium containing 10% Heat Inactivated (HI) FBS, 2 mM L-Glutamine and 50 µg/mL Gentamycin phenol red free RPMI-1640. Cells were split at 0.4 million/mL twice a week.
On Day 1, plates containing individual wells with test compounds at 10 mM concentration, 150 nL per well. The final concentrations range from […] compound (and no compound control) and compounds were thawed at room temperature for 1 hour. 25 μl of prewarmed medium was added into each well by multidrop (column 1, 3-22, 24), followed by addition of DMSO control (0.6% DMSO) in column 2. The plate was sealed using Breathe-Easy® sealing membrane and shaken for 30 min at room temperature to dissolve the test compound(s) in medium. The plate was then kept in the incubator for 1 hour at 37° C., 5% CO2.
MOLP8 cells in medium at […] (20000/50 μl final in assay) were prepared with CellEvent™ Caspase-3/7 Green Detection Reagent at 4 μM (2 μM final in assay). Once prepared, the cells were added to the test compound plate in an amount of 20000 and the plate was immediately placed in the IncuCyte and imaging started using following settings: 10× objective, 2 s exposure time in green channel, interval of 2 h, acquisition stopped after 22 h.
For analysis in IncuCyte, a Basic Analysis protocol was defined to calculate the “confluence” and “caspase” areas from the “Phase” and “green” images, respectively, as follows: (a) Confluence: Segmentation Adjustment 1, Hole Fill 0, Adjust Size −2, No filters (b) Caspase: Top-Hat segmentation, Radius 10, Threshold 0.3 GCU, Edge Split On with sensitivity 0, Hole Fill 0, Adjust Size 1, and filter on a minimum Area of 20 μm^2. The analyzer is trained on a sufficient number of positive and negative control wells, as well as compound treated wells, verifying that the “confluence” layer detects both live and dead (condensed) cells. […]

[1] = tested on: Molp8 multiple myeloma cell line; assay: Molp8 multiple myeloma cell line survival assay using Annexin V and 7AAD; format: cell-based, human; settings: live cell percent by Annexin V/7AAD flow cytometry, 3 days incubation; each independent run listed individually; read-out: MOLP8 Apoptosis IC50
Source text: Molp8 multiple myeloma cell line survival assay using Annexin V and 7AAD.
The Annexin V/7AAD principle is based on the location of phosphatidylserine in the plasma membrane and the integrity of the membrane barrier. During early apoptosis, phosphatidylserine loses its normal distribution patterns in the inner leaflet of the plasma membrane and appears on the exterior of the plasma membrane. Annexin proteins are calcium dependent phospholipid binding proteins and can bind phosphatidylserine on the outer membrane during cell death. The viability dye 7AAD is excluded from entering cells with intact plasma membranes but accumulates in cells that have lost membrane integrity. Annexin Fitc is excited by the 488 nm laser (max excitation: 490 nm, max emission: 525 nm) as is 7AAD (excitation: 488 nm, emission: 650 nm), which allows this assay to be completed on any multicolor flow cytometer.
The assay conditions were optimized using the following 1× reaction buffer: 5 mM HEPES (4-(2-hydroxyethyl)-1-piperazineethanesulfonic acid), 70 mM NaCl, 1.25 mM CaCl2, pH 7.4.
The Molp 8 cells were multiple myeloma, human, in suspension (*cells were counted 2× per week and culture density maintained between 0.5 and 1.5×10^6 cells per ml).
On Day 1, 5×10^4 live cells per well were plated in a 96-well U-bottom plate, with the cells plated in 100 uL RPMI+10% FBS. An 11-point compound dilution plate was prepared in 3-fold steps (Final concentration range 10 μM-0.1 nM) and added at a concentration of 1 μL per well. The plate was then incubated for 3 days at 37° C. and 5% CO2.
On Day 4, the cells were pelleted and the media discarded. The cells were then resuspended in 50 μL AnnexinV-Fitc (1:40 dilution) and 7AAD (1:100 dilution) in Annexin binding buffer, then incubated for 30 min @ room temperature in the dark. 50 μL binding buffer (100 uL total volume) was then added to the cells. There was no wash step required.
Within 2 hours, PeCy5 (7AAD) and Fitc (Annexin) channels were recorded using BD Canto, collecting a minimum per singlet of 10,000 events.
The activity of a test compound was calculated based on the live cell percentage. • LC=Median of the low control values • =Low control: cells without treatment (no greater than 100% live) • HC=Median of the high control values • =High control: cells treated with 10 uM drug (no less than 0% live)
A best-fit curve was fitted by a minimum sum of squares method to the plot of live cell percent vs. compound concentration. From this an IC50 value (inhibitory concentration causing 50% cytotoxicity) was obtained. An estimate of the slope of the plot in terms of the Hill coefficient was also obtained.

[2] = 6 h, read-out: MOLP8 Caspase 3/7 AC50 at 6 h
[3] = 12 h, read-out: MOLP8 Caspase 3/7 AC50 at 12 h
[4] = 22 h, read-out: MOLP8 Caspase 3/7 AC50 at 22 h

| SMILES | AC50 (MOLP8 cells; [2]) | AC50 (MOLP8 cells; [3]) | AC50 (MOLP8 cells; [4]) | IC50 [1] |
| --- | --- | --- | --- | --- |
| Cc1c(C(=O)O)n2c3ccc(Cl)c(c13)-c1c(nn(C)c1C)CSCc1cc(n(C)n1)CSc1cc(c3ccccc3c1)OCCC2 (single isomer, unassigned) [Compound 1, 1^5-chloro-1^3,2^1,2^5,6^1-tetramethyl-1^1H,2^1H,6^1H-10-oxa-4,8-dithia-1(4,1)-indola-2(4,3),6(3,5)-dipyrazola-9(3,1)-naphthalenacyclotridecaphane-1^2-carboxylic acid] | 178 nM and 129 nM | 141 nM and 182 nM | 145 nM and 170 nM | 54 nM and 106 nM |
| Cc1c(C(=O)O)n2c3ccc(Cl)c(c13)-c1c(nn(C)c1C)CSCc1cc(n(C)n1)CSc1cc(c3ccccc3c1)OCCC2 (single isomer, unassigned) [Compound 2, 1^5-chloro-1^3,2^1,2^5,6^1-tetramethyl-1′H,2′H,6H-10-oxa-4,8-dithia-1(4,1)-indola-2(4,3),6(3,5)-dipyrazola-9(3,1)-naphthalenacyclotridecaphane-1^2-carboxylic acid] | 4570 nM and 4790 nM | 4470 nM and 4680 nM | 4270 nM and 4470 nM | 1300 nM and 7040 nM |
